Data published in article PMC10794144, “A novel antibiotic class targeting the lipopolysaccharide transporter” (Nature, 2024).
Values after ≈ are worked out from the molar mass of the structure shown.

Tests used:
A. baumannii = experiment: microbe, parasite or virus in culture; conditions: for MIC90 / MIC: Acinetobacter baumannii; for RO7223280 MIC 80%: read at 80%; for RO7223280 MIC 100%: read at 100%
Protocol: (§1) MIC determinations were performed using the broth microdilution method and in line with CLSI guidelines M07 and M100 (refs. [37],[38]). Bacterial inocula were prepared by diluting a 0.5 McFarland suspension in CAMHB or lysogeny broth (LB) specifically for A. baylyi isolates. […] MIC values of all of the tested antibiotics were read as the lowest compound concentration inhibiting bacterial growth by naked eye or beyond which the OD600 ceased to decrease.

[1] = test system: K. pneumoniae ATCC 700603; experiment: microbe, parasite or virus in culture; conditions: for MIC: Klebsiella pneumoniae; for RO7223280 MIC 100%: K. pneumoniae ATCC 700603, read at 100%
Protocol: as §1

[2] = 10 MDR isolates, CAMHB, MCPs read at 80% growth inhibition
[3] = ATCC19606, ATCC 19606, CAMHB, MCPs read at 80% growth inhibition
[4] = A. baumannii ATCC 17978, Study LGC308175
[5] = A. baumannii ATCC 19606, Study LGC296813
[6] = A. baumannii ATCC 19606, Study LGC299544
[7] = A. baumannii ATCC 19606, Study LGC308175
[8] = A. baumannii ROB08701, Study LGC296813
[9] = A. baumannii ROB08701, Study LGC299544
[10] = A. baumannii ROB08701, Study LGC308175
[11] = A. baumannii ROB08702, Study LGC296813
[12] = A. baumannii ROB08702, Study LGC299544
[13] = A. baumannii ROB08702, Study LGC308175
[14] = A. baumannii ROB08703, Study LGC296813
[15] = A. baumannii ROB08703, Study LGC299544
[16] = A. baumannii ROB08703, Study LGC308175
[17] = A. baumannii ROB08704, Study LGC296813
[18] = A. baumannii ROB08704, Study LGC299544
[19] = A. baumannii ROB08704, Study LGC308175
[20] = A. baumannii ROB08705, Study LGC296813
[21] = A. baumannii ROB08705, Study LGC299544
[22] = A. baumannii ROB08705, Study LGC308175
[23] = A. baumannii ROB08706, Study LGC296813
[24] = A. baumannii ROB08706, Study LGC299544
[25] = A. baumannii ROB08706, Study LGC308175
[26] = A. baumannii ROB08707, Study LGC296813
[27] = A. baumannii ROB08707, Study LGC299544
[28] = A. baumannii ROB08707, Study LGC308175
[29] = A. baumannii ROB08708, Study LGC296813
[30] = A. baumannii ROB08708, Study LGC299544
[31] = A. baumannii ROB08708, Study LGC308175
[32] = A. baumannii ROB08709, Study LGC296813
[33] = A. baumannii ROB08709, Study LGC299544
[34] = A. baumannii ROB08709, Study LGC308175
[35] = A. baumannii ROB08710, Study LGC296813
[36] = A. baumannii ROB08710, Study LGC299544
[37] = A. baumannii ROB08710, Study LGC308175

CN1C(=O)[C@H](CCCN)NC(=O)[C@H](CCCN)NCc2ccccc2Sc2ccccc2CNC(=O)[C@@H]1Cc1c[nH]c2ccccc12 [RO7036668]
MIC range (A. baumannii; [2]): 1 to 16 µg/mL | MIC90 (A. baumannii): 16 µg/mL (≈ 24.4 µM) | MIC (A. baumannii; [3]): 4 µg/mL (≈ 6.1 µM) | MIC ([1]; ATCC700603, CAMHB, mode of at least three replicates (RO7036668 one replicate)): > 64 µg/mL | MIC 100% ([1]; Study ROC004, 100%): >64 µg/mL

CN1C(=O)[C@H](CCCCN)NC(=O)[C@H](CCCN)NCc2cccnc2Sc2cccc(-c3ccc(C(=O)O)cc3)c2CNC(=O)[C@@H]1Cc1c[nH]c2ccccc12 [zosurabalpin]
MIC range (A. baumannii; [2]): 0.12 to 1 µg/mL | RO7223280 MIC 80% (A. baumannii; [4]): ≤0.06 µg/mL | RO7223280 MIC 100% (A. baumannii; [4]): 0.12 µg/mL | RO7223280 MIC 80% (A. baumannii; [5]): 0.25 µg/mL | RO7223280 MIC 100% (A. baumannii; [5]): 0.25 µg/mL | RO7223280 MIC 80% (A. baumannii; [6]): 0.25 µg/mL | RO7223280 MIC 100% (A. baumannii; [6]): 0.25 µg/mL | RO7223280 MIC 80% (A. baumannii; [7]): 0.25 µg/mL | RO7223280 MIC 100% (A. baumannii; [7]): 0.25 µg/mL | RO7223280 MIC 80% (A. baumannii; [8]): 0.25 µg/mL | RO7223280 MIC 100% (A. baumannii; [8]): 0.25 µg/mL | RO7223280 MIC 80% (A. baumannii; [9]): 0.12 µg/mL | RO7223280 MIC 100% (A. baumannii; [9]): 0.5 µg/mL | RO7223280 MIC 80% (A. baumannii; [10]): 0.25 µg/mL | RO7223280 MIC 100% (A. baumannii; [10]): 0.25 µg/mL | RO7223280 MIC 80% (A. baumannii; [11]): 0.25 µg/mL | RO7223280 MIC 100% (A. baumannii; [11]): 0.25 µg/mL | RO7223280 MIC 80% (A. baumannii; [12]): 0.25 µg/mL | RO7223280 MIC 100% (A. baumannii; [12]): >64 µg/mL | RO7223280 MIC 80% (A. baumannii; [13]): 0.25 µg/mL | RO7223280 MIC 100% (A. baumannii; [13]): >64 µg/mL | RO7223280 MIC 80% (A. baumannii; [14]): 0.25 µg/mL | RO7223280 MIC 100% (A. baumannii; [14]): 0.5 µg/mL | RO7223280 MIC 80% (A. baumannii; [15]): 0.25 µg/mL | RO7223280 MIC 100% (A. baumannii; [15]): 0.5 µg/mL | RO7223280 MIC 80% (A. baumannii; [16]): 0.5 µg/mL | RO7223280 MIC 100% (A. baumannii; [16]): 0.5 µg/mL | RO7223280 MIC 80% (A. baumannii; [17]): 0.25 µg/mL | RO7223280 MIC 100% (A. baumannii; [17]): 0.5 µg/mL | RO7223280 MIC 80% (A. baumannii; [18]): 0.25 µg/mL | RO7223280 MIC 100% (A. baumannii; [18]): 1 µg/mL | RO7223280 MIC 80% (A. baumannii; [19]): 0.5 µg/mL | RO7223280 MIC 100% (A. baumannii; [19]): 0.5 µg/mL | RO7223280 MIC 80% (A. baumannii; [20]): 0.25 µg/mL | RO7223280 MIC 100% (A. baumannii; [20]): 0.25 µg/mL | RO7223280 MIC 80% (A. baumannii; [21]): 0.12 µg/mL | RO7223280 MIC 100% (A. baumannii; [21]): 0.12 µg/mL | RO7223280 MIC 80% (A. baumannii; [22]): ≤0.06 µg/mL | RO7223280 MIC 100% (A. baumannii; [22]): 0.12 µg/mL | RO7223280 MIC 80% (A. baumannii; [23]): 1 µg/mL | RO7223280 MIC 100% (A. baumannii; [23]): 1 µg/mL | RO7223280 MIC 80% (A. baumannii; [24]): 1 µg/mL | RO7223280 MIC 100% (A. baumannii; [24]): >64 µg/mL | RO7223280 MIC 80% (A. baumannii; [25]): 2 µg/mL | RO7223280 MIC 100% (A. baumannii; [25]): >64 µg/mL | RO7223280 MIC 80% (A. baumannii; [26]): 0.25 µg/mL | RO7223280 MIC 100% (A. baumannii; [26]): 0.25 µg/mL | RO7223280 MIC 80% (A. baumannii; [27]): 0.12 µg/mL | RO7223280 MIC 100% (A. baumannii; [27]): 0.12 µg/mL | RO7223280 MIC 80% (A. baumannii; [28]): 0.12 µg/mL | RO7223280 MIC 100% (A. baumannii; [28]): 0.12 µg/mL | RO7223280 MIC 80% (A. baumannii; [29]): 0.25 µg/mL | RO7223280 MIC 100% (A. baumannii; [29]): 0.25 µg/mL | RO7223280 MIC 80% (A. baumannii; [30]): 0.12 µg/mL | RO7223280 MIC 100% (A. baumannii; [30]): >64 µg/mL | RO7223280 MIC 80% (A. baumannii; [31]): 0.12 µg/mL | RO7223280 MIC 100% (A. baumannii; [31]): >64 µg/mL | RO7223280 MIC 80% (A. baumannii; [32]): 0.25 µg/mL | RO7223280 MIC 100% (A. baumannii; [32]): 0.25 µg/mL | RO7223280 MIC 80% (A. baumannii; [33]): 0.25 µg/mL | RO7223280 MIC 100% (A. baumannii; [33]): >64 µg/mL | RO7223280 MIC 80% (A. baumannii; [34]): 0.25 µg/mL | RO7223280 MIC 100% (A. baumannii; [34]): >64 µg/mL | RO7223280 MIC 80% (A. baumannii; [35]): 0.25 µg/mL | RO7223280 MIC 100% (A. baumannii; [35]): >64 µg/mL | RO7223280 MIC 80% (A. baumannii; [36]): 0.25 µg/mL | RO7223280 MIC 100% (A. baumannii; [36]): >64 µg/mL | RO7223280 MIC 80% (A. baumannii; [37]): 0.25 µg/mL | RO7223280 MIC 100% (A. baumannii; [37]): >64 µg/mL | MIC90 (A. baumannii; [2]): 0.25 µg/mL (≈ 0.316 µM) | MIC (A. baumannii; ACC00445, CAMHB, MCPs read at 80% inhibition): 0.12 µg/mL (≈ 0.152 µM) | MIC (A. baumannii; ACC00535, CAMHB, MCPs read at 80% inhibition): 0.12 µg/mL (≈ 0.152 µM) | MIC (A. baumannii; ACC01073, CAMHB, MCPs read at 80% inhibition): 1 µg/mL (≈ 1.26 µM) | MIC (A. baumannii; ACC01077, CAMHB, MCPs read at 80% inhibition): 0.12 µg/mL (≈ 0.152 µM) | MIC (A. baumannii; ACC01085 / AR0307, CAMHB, MCPs read at 80% inhibition): 0.5 µg/mL (≈ 0.632 µM) | MIC (A. baumannii; ATCC17978, ATCC 17978, CAMHB, MCPs read at 80% inhibition): ≤ 0.06 µg/mL | MIC (A. baumannii; ATCC17978, ATCC 17978, CAMHB, one replicate, MCPs read at 80% growth inhibition): ≤ 0.06 µg/mL | MIC (A. baumannii; [3]): 0.25 µg/mL (≈ 0.316 µM) | MIC (A. baumannii; ATCC19606, ATCC 19606, CAMHB, MCPs read at 80% inhibition): 0.12 µg/mL (≈ 0.152 µM) | MIC (A. baumannii; ATCCBAA747, ATCC BAA-747, CAMHB, MCPs read at 80% inhibition): ≤ 0.06 µg/mL | MIC (A. baumannii; ROB08701, CAMHB, MCPs read at 80% inhibition): 0.25 µg/mL (≈ 0.316 µM) | MIC (A. baumannii; ROB08702, CAMHB, MCPs read at 80% inhibition): 0.12 µg/mL (≈ 0.152 µM) | MIC (A. baumannii; ROB08703, CAMHB, MCPs read at 80% inhibition): 0.5 µg/mL (≈ 0.632 µM) | MIC (A. baumannii; ROB08704, CAMHB, MCPs read at 80% inhibition): 0.25 µg/mL (≈ 0.316 µM) | MIC (A. baumannii; ROB08705, CAMHB, MCPs read at 80% inhibition): 0.25 µg/mL (≈ 0.316 µM) | MIC (A. baumannii; ROB08706, CAMHB, MCPs read at 80% inhibition): 0.5 µg/mL (≈ 0.632 µM) | MIC (A. baumannii; ROB08707, CAMHB, MCPs read at 80% inhibition): ≤ 0.06 µg/mL | MIC (A. baumannii; ROB08708, CAMHB, MCPs read at 80% inhibition): 0.12 µg/mL (≈ 0.152 µM) | MIC (A. baumannii; ROB08709, CAMHB, MCPs read at 80% inhibition): ≤ 0.06 µg/mL | MIC (A. baumannii; ROB08710, CAMHB, MCPs read at 80% inhibition): 0.12 µg/mL (≈ 0.152 µM) | RO7223280 MIC 100% ([1]; Study LGC296813): >64 µg/mL | RO7223280 MIC 100% ([1]; Study LGC299544): >64 µg/mL | RO7223280 MIC 100% ([1]; Study LGC308175): >64 µg/mL | MIC ([1]; ATCC700603): > 64 µg/mL
